# Source: PubChem BioAssay AID278 (DTP/NCI, 2004)
# “And” between values parts separate entries of the source, which are not always exact repeats. Equal entries are not always repeated. Results filed as inconclusive are left out.
# System: nude mice, A549 intrarenal xenograft, tumor weight change
# Test: NCI In Vivo Anticancer Drug Screen. Data for tumor model A549 Human Adenocarcinoma of Lung with characteristics of Type II Alveolar Epithelial cells (intrarenal inoculation) in NU/NU BALB/C (nude) mice
# Details: endpoint: mean tumor weight change, schedule: Q04DX003 (ip), higher = larger tumour
# How it was run: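 Activity is expressed as T/C: the treated-group value over the vehicle-treated control value. The measure was survival or tumor size in mice carrying transplantable tumors.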
# [1] = dose: 75.0 mg/kg/injection, vehicle: Klucel (hydroxypropylcellulose) (HPC)
# [2] = dose: 150.0 mg/kg/injection, vehicle: Klucel (hydroxypropylcellulose) (HPC)
# [3] = dose: 300.0 mg/kg/injection, vehicle: Klucel (hydroxypropylcellulose) (HPC)
# [4] = dose: 100.0 mg/kg/injection, vehicle: Klucel (hydroxypropylcellulose) (HPC)
# [5] = dose: 150.0 mg/kg/injection, vehicle: saline with Tween-80
# [6] = dose: 300.0 mg/kg/injection, vehicle: saline with Tween-80
# [7] = dose: 600.0 mg/kg/injection, vehicle: saline with Tween-80
# [8] = dose: 1200.0 mg/kg/injection, vehicle: saline with Tween-80
# [9] = dose: 37.5 mg/kg/injection, vehicle: water
# [10] = dose: 75.0 mg/kg/injection, vehicle: water
structure (smiles),measurement,setting,value
CNC(=O)OCc1nc(SC)n(C)c1COC(=O)NC,T/C,"dose: 12.5 mg/kg/injection, vehicle: saline",156 % of control
same,T/C,"dose: 25.0 mg/kg/injection, vehicle: saline",28 % of control
CCCCCNc1ncnc2c(C)[nH]nc12,T/C,"dose: 37.5 mg/kg/injection, vehicle: Klucel (hydroxypropylcellulose) (HPC)",82 % of control
same,T/C,[1],105 % of control
same,T/C,[2],100 % of control
COc1ccc2c(c1)-c1nn(CCCN(C)C)c3ccc([N+](=O)[O-])c(c13)N2,T/C,"dose: 12.5 mg/kg/injection, vehicle: water",61 % of control
same,T/C,"dose: 25.0 mg/kg/injection, vehicle: water",81 % of control
same,T/C,"dose: 50.0 mg/kg/injection, vehicle: water",14 % of control
same,T/C,"dose: 100.0 mg/kg/injection, vehicle: water",27 % of control
CCCCCC[Se][Se]CCCCCC,T/C,"dose: 10.0 mg/kg/injection, vehicle: Klucel (hydroxypropylcellulose) (HPC)",106 % of control
same,T/C,"dose: 20.0 mg/kg/injection, vehicle: Klucel (hydroxypropylcellulose) (HPC)",38 % of control
same,T/C,"dose: 40.0 mg/kg/injection, vehicle: Klucel (hydroxypropylcellulose) (HPC)",70 % of control
same,T/C,"dose: 80.0 mg/kg/injection, vehicle: Klucel (hydroxypropylcellulose) (HPC)",71 % of control
O=C(Nc1cccnc1)c1ccc([N+](=O)[O-])s1,T/C,"dose: 200.0 mg/kg/injection, vehicle: saline with Tween-80",38 % of control and 51 % of control
O=C1CC2(C(=O)N1CN1CCOCC1)c1ccccc1-c1ccccc12,T/C,[2],36 % of control
same,T/C,"dose: 216.0 mg/kg/injection, vehicle: Klucel (hydroxypropylcellulose) (HPC)",21 % of control
same,T/C,[3],28 % of control
same,T/C,"dose: 360.0 mg/kg/injection, vehicle: Klucel (hydroxypropylcellulose) (HPC)",23 % of control
same,T/C,"dose: 600.0 mg/kg/injection, vehicle: Klucel (hydroxypropylcellulose) (HPC)",11 % of control
CN(C)c1ccc2c(SCC(=O)OCC(=O)[C@@]3(O)CC[C@H]4[C@@H]5CCC6=CC(=O)C=C[C@]6(C)[C@H]5C(=O)C[C@@]43C)c3ccc(N(C)C)cc3nc2c1,T/C,[1],52 % of control
same,T/C,[2],62 % of control
same,T/C,[3],96 % of control
O=C(/C=C/c1cccnc1)/C=C/c1cccnc1,T/C,"dose: 12.5 mg/kg/injection, vehicle: Klucel (hydroxypropylcellulose) (HPC)",91 % of control
same,T/C,[4],54 % of control
S=C1CCCCN1,T/C,"dose: 75.0 mg/kg/injection, vehicle: distilled water + Tween-80 + alcohol",86 % of control
same,T/C,"dose: 150.0 mg/kg/injection, vehicle: distilled water + Tween-80 + alcohol",69 % of control
Nc1ccc2ccc(NS(=O)(=O)N3CCCCC3)cc2c1,T/C,[5],94 % of control
same,T/C,[6],60 % of control
same,T/C,[7],32 % of control
CC#CCOCC(O)CCl (stereo not given),T/C,"dose: 100.0 mg/kg/injection, vehicle: saline",104 % of control
same,T/C,"dose: 200.0 mg/kg/injection, vehicle: saline",90 % of control
same,T/C,"dose: 400.0 mg/kg/injection, vehicle: saline",111 % of control
CCN(CC)c1ccc2[nH]c3c(C(N)=O)cc(=O)c(=O)c=3oc2c1,T/C,[5],84 % of control
same,T/C,[6],96 % of control
O=S(=O)(O)c1cc(N=C=S)ccc1/C=C/c1ccc(N=C=S)cc1S(=O)(=O)O,T/C,"dose: 3.75 mg/kg/injection, vehicle: saline",107 % of control
same,T/C,"dose: 7.5 mg/kg/injection, vehicle: saline",64 % of control
same,T/C,"dose: 30.0 mg/kg/injection, vehicle: saline",118 % of control
O=C(O)[C@H](Cc1ccccc1)N1C(=O)c2ccccc2C1=O,T/C,"dose: 150.0 mg/kg/injection, vehicle: DMSO",94 % of control
same,T/C,"dose: 300.0 mg/kg/injection, vehicle: DMSO",77 % of control
same,T/C,"dose: 600.0 mg/kg/injection, vehicle: DMSO",47 % of control
Nc1ccn([C@@H](C=O)C[C@@H](C=O)CO)c(=O)n1,T/C,"dose: 37.5 mg/kg/injection, vehicle: saline with Tween-80",42 % of control
same,T/C,"dose: 75.0 mg/kg/injection, vehicle: saline with Tween-80",245 % of control
same,T/C,[5],66 % of control
same,T/C,[6],216 % of control and 82 % of control
same,T/C,[7],48 % of control
same,T/C,[8],26 % of control
CCOC(=O)Nc1cc2c(c(N)n1)N=C(c1ccc3ccccc3c1)CN2,T/C,"dose: 7.5 mg/kg/injection, vehicle: saline with Tween-80",82 % of control
same,T/C,"dose: 15.0 mg/kg/injection, vehicle: saline with Tween-80",113 % of control
same,T/C,"dose: 30.0 mg/kg/injection, vehicle: saline with Tween-80",63 % of control
same,T/C,"dose: 60.0 mg/kg/injection, vehicle: saline with Tween-80",55 % of control
[Cl][Pt][Cl].[NH-]C(CO)C(=O)O (stereo not given),T/C,[9],93 % of control
same,T/C,[10],247 % of control
same,T/C,"dose: 150.0 mg/kg/injection, vehicle: water",63 % of control
CC(=O)c1cccc(NC2C(N)C(NC(=O)N(C)C)(C(C)O)C(C)(O)C2(O)COC(=O)c2c(C)cccc2O)c1 (stereo not given),T/C,"dose: 6.25 mg/kg/injection, vehicle: suspension in saline",183 % of control
same,T/C,"dose: 12.5 mg/kg/injection, vehicle: suspension in saline",121 % of control
same,T/C,"dose: 25.0 mg/kg/injection, vehicle: suspension in saline",120 % of control
same,T/C,"dose: 50.0 mg/kg/injection, vehicle: suspension in saline",68 % of control
CC(C)(C[NH-])C[NH-].[Cl][Pt+2][Cl],T/C,"dose: 1.5 mg/kg/injection, vehicle: water",40 % of control
same,T/C,"dose: 3.0 mg/kg/injection, vehicle: water",70 % of control
same,T/C,"dose: 6.0 mg/kg/injection, vehicle: water",62 % of control
same,T/C,"dose: 12.0 mg/kg/injection, vehicle: water",52 % of control
CC(C)(C)NC(C1=CC(C)(C)c2ccccc2C1=O)c1ccccc1 (stereo not given),T/C,[4],107 % of control
same,T/C,"dose: 200.0 mg/kg/injection, vehicle: Klucel (hydroxypropylcellulose) (HPC)",65 % of control
Cc1cc(Br)c2nsnc2c1[N+](=O)[O-],T/C,[5],7 % of control and 26 % of control
same,T/C,[8],38 % of control
COc1cccc2c1C(=O)c1c(O)c3c(c(O)c1C2=O)C[C@@](O)(C(=O)CO)C[C@@H]3OC1CC(N)C(O)C(C)O1 (stereo not given in full),T/C,"dose: 2.0 mg/kg/injection, vehicle: saline",11 % of control and 13 % of control and 25 % of control
same,T/C,"dose: 4.0 mg/kg/injection, vehicle: saline",9 % of control and 13 % of control and 20 % of control
same,T/C,"dose: 8.0 mg/kg/injection, vehicle: saline",7 % of control and -9 % of control and -8 % of control
Cc1ccc(C2=CSC3=NCCN23)cc1Cl,T/C,"dose: 2.5 mg/kg/injection, vehicle: suspension in saline",88 % of control
same,T/C,"dose: 5.0 mg/kg/injection, vehicle: saline",119 % of control
same,T/C,"dose: 5.0 mg/kg/injection, vehicle: suspension in saline",60 % of control
same,T/C,"dose: 10.0 mg/kg/injection, vehicle: suspension in saline",44 % of control
same,T/C,"dose: 20.0 mg/kg/injection, vehicle: saline",104 % of control
same,T/C,"dose: 20.0 mg/kg/injection, vehicle: suspension in saline",102 % of control
same,T/C,"dose: 40.0 mg/kg/injection, vehicle: saline",26 % of control
C=C(CO)C(=O)OC1CC(=C)C2CC(O)C(=C)C2[C@H]2OC(=O)C(=C)C12 (stereo not given in full),T/C,"dose: 2.36 mg/kg/injection, vehicle: saline + alcohol",64 % of control
same,T/C,"dose: 4.72 mg/kg/injection, vehicle: saline + alcohol",99 % of control
same,T/C,"dose: 8.75 mg/kg/injection, vehicle: saline + alcohol",86 % of control
Oc1cccc2ccccc12,T/C,[9],102 % of control
same,T/C,[10],54 % of control
